According to patent US6133273A, “Pyrazolopyrimidine-2,4-dione sulfonamides” (American Home Products Corporation, priority 1999, dated 2000):

Experiments:
[1] = system: C1-3 cell line (calcitonin secretion); test: Calcitonin Secretion/RIA Assay; type: cell-based, human; conditions: active if >2.5; for Secretion Ratio: 30 μM, ratio of calcitonin secretion vs untreated control; for fold induction at 30 µM: Homo sapiens, C13, ratio of calcitonin secretion vs untreated control
Protocol: Cell Line: C1-3 (Parent Cell Line: TT-medullary thyroid carcinoma),
Reagent A--(Anti-Calcitonin)
Regent C--(Anti-Goat Precipitant)
Regent D--(Zero Standard).
Reagents E-I--(Calcitonin Standards)
Reagents J-K (Calcitonin Controls: Level and Level 2)
1. Glass tubes were labeled to include Total Count (TC), Nonspecific Binding (NSB), Maximum Binding (Bo), Standards, Controls and Patient Sera in duplicate.
2. […] of Standard Zero (Reagent D) was added to tubes 3 through 6 (NSB and Bo).
3. […] of Standards* (Reagents E-1) was added to tubes 7-16 as follows:
4. […] of Patient Serum 1 was added to tubes 21 and 22, Patient Serum 2 was added to tubes 23 and 24, etc.
5. […] of Reagent L (NSB Buffer) was added to tubes 3 and 4.
6. […] of Reagent A (Anti-Calcitonin) was added to all tubes except tubes 1 & 2 (TC) and tube 3 & 4 (NSB). All tubes were vortexed, covered with parafilm or foil and incubated 44±6 hours at 2-8° C.
7. […] All tubes were vortexed, covered with parafilm or foil and incubated 22±3 hours at 2-8° C.
8. Reagent C (Anti-Goat Precipitant) was mixed gently but thoroughly by inverting the vial several times before use. 1 mL Reagent C was added to all tubes except 1 and 2 (TC). Tubes were vortexed and incubated 20 minutes at room temperature.
9. All tubes were centrifuged at 1300-1500×g for 15 minutes at 2-8° C.
10. Supernatant was decanted immediately after centrifugation taking care to leave the precipitate intact.
11. Tubes were counted 4 minutes or longer.
Secretion Ratio: Stimulation of calcitonin secretion is expressed as a ratio of secretion activity in the presence of test compound compared to the secretion activity in the untreated control: [formula]

PDE-IV = test: Inhibition of Phosphodiesterase IV (PDE-IV) isolated from human U937 cells; type: biochemical; conditions: U937 cell PDE-IV, 1 μM [3H]-cAMP, 37° C., test compound 0.001 μM to 10 μM
Protocol: This assay was used to biochemically assess the ability of a test compound to inhibit PDE-IV isolated from a U937 cell line, where PDE-IV refers to the cGMP-insensitive, cAMP-selective PDE.
Cell Culture: U937 cells were grown in RPMI 1640 medium supplemented with 10% heat-inactivated fetal calf serum and Penicillin/Streptomycin (100 units/100 μg per mL) in a humidified 5% CO2 atmosphere at 37° C. Starter cells were maintained in continuous logarithmic growth by seeding them in 75 cm^2 vented tissue culture flasks at a concentration of 3×10^4 cells/mL and passing them every 3-4 days when the cells reached approximately 8×10^5 cells/mL. For experiments, 3-4 day starter cells were seeded in 225 cm^2 flasks at 1×10^5 cells/mL and harvested 3-4 days later at approx. 6×10^5 cells/mL.
Isolation of PDE-IV: U937 cells were activated with 10 μM dibutyryl cAMP for a period of 4 hours (to up-regulate PDE-IV) and then harvested by centrifugation at 1200×g for 10 min in 250 mL conical centrifuge tubes. The pellet from each 200 mL flask was resuspended in 5 mL buffer A [10 mM Tris-HCl, 5 mM MgCl2, 4 mM EGTA, 5 mM 2-mercaptoethanol, 1 μM leupeptin, 1 μM pepstatin A, and 5 μM phenylmethyl sulfonyl fluoride (PMSF) (pH 7.8)], and the cells were lysed using 3 cycles of freezing (3 min in dry ice/acetone) followed by thawing (warm water). […] To determine which families of PDEs were present, fractions may be assayed for hydrolytic activity with 1 μM [^3 H]-cAMP or 1 μM [^3 H]-cGMP. Additionally, 1 μM [^3 H]-cAMP assays were conducted in the presence of 10 μM rolipram, 10 μM cGMP, or calmodulin (1 unit/0.4 mL plus 10 μM CaCl2).
When prepared in this manner, approximately 80% of total cAMP PDE activity is eluted by Buffer B containing 0.7 M sodium acetate. This PDE activity consists of>90% PDE-IV (as evidenced by its susceptibility to inhibition by rolipram.
PDE assay: PDE activity was measured using a modification of the radioisotope procedure previously described by Thompson et al. (Thompson, W. J., Terasaki, W. L., Epstein, P. M. and Strada, S. J. Adv, Cyclic Nucleotide Res. 1979, 10, 69). Reaction mixtures (0.4 mL) contain 40 mM Tris-HCl (pH 7.8), 4 mM 2-mercaptoethanol, 5 mM MgCl2, 0.1 μM leupeptin, 0.1 μM pepstatin A, 0.1 μM PMSF, 1 μM [3H]-cAMP or 1 μM [^3 H]-cGMP (~200,000 DPM), and enzyme to initiate the reaction. ^3 H-cAMP substrate was prepared as follows: A stock solution of ^3 H-cyclic nucleotide (1000 μCi/mL) was diluted 1:10 in 50% EtOH. 200 μl of this diluted stock solution was added to a cold (unlabeled) cyclic nucleotide solution, made at a concentration of 4 μM. 100 μl of this solution was used per assay tube to achieve a final concentration of 1 μM cyclic nucleotide per assay tube (200,000 DPM). Enzyme activity was determined at 37° C. Reactions were terminated by boiling, incubating with snake venom, and cooling as previously described (Thompson et al., 1979). The reaction mixture was applied to a (0.8×8.5 cm) column containing 0.4 g Dowex I-X8 affinity resin; reaction tubes were rinsed with 0.5 mL of methanol; and this, along with an extra 1 mL of methanol, was applied to the column to elute the ^3 H-reaction products. After all liquid has passed through the column, the column was plunged with a 12 cc syringe plunger. Each column's eluate was collected in a 20 mL scintillation vial containing 10 mL aquasol-2 and counted by scintillation spectrophotometry. [^3 H]-adenosine or [^3 H]-guanosine recovery was corrected for background DPM determined in the absence of enzyme. The amount of enzyme and duration of assay were adjusted to ensure that less than 25% of the substrate was consumed under these conditions.
Measurements: Inhibition by a test compound was measured as a percent reduction of total PDE activity, and calculated as follows: [formula] where A is the PDE activity (mean DPM-background DPM) in the presence of test compound, and B is the total PDE-IV activity (mean DPM-background DPM) in the absence of test compound. […]

[2] = system: promoter region of the human calcitonin gene (luciferase reporter, C1-3 cells); conditions: c1-3 tt cells, 12 h, 30 µM
Protocol: (§1) This assay was used to determine the ability of a compound to stimulate transcription of a luciferase reporter gene regulated by 3 kb of the promoter region of the human calcitonin gene.
(§2) C1-3 cells were plated at a density of 6,500-7,500 cells per well in a 96-plate microtiter plate. Twenty-four to forty-eight hours later, compounds were added to the wells in triplicate. Compounds were tested at a concentration of 10 μg/mL in 0.5% DMSO.
(§3) The production of light is measured on a luminometer.
(§4) TAR Ratio: Stimulation of calcitonin promoter-dependent transcription is expressed as a ratio of luciferase activity (LUCI) in the presence of test compound compared to the LUCI activity in the untreated control: [formula]

[3] = Serum Calcium/Plasma Calcitonin Determination Assay (acute/subacute, rats); type: in vivo, Sprague Dawley rats; conditions: subacute, sc, n=8, 30 mg/kg/2x/day; for % Decrease Serum Calcium: Examples 4 and 7 marked * (p<0.05 vs. vehicle); for % Increase Plasma Calcitonin: Examples 5 and 7 marked * (p<0.05 vs. vehicle)
Protocol: This assay was used to evaluate the ability of a test compound to decrease serum calcium and increase plasma calcitonin in rats using either an acute or sub-acute protocol. […]
Subacute Administration Study: After 72 hours acclimatization, young male or female Sprague Dawley rats weighing 170-250 g were randomly divided in groups of 8. The rats were fasted and given deionized H2 O 18 hours prior to the start of the study. The purpose of the fasting is to reduce the variability in serum calcium and plasma calcitonin levels. Each rat was weighed.
C-G Test Compounds 30 mg/kg/2x/day ip or sc
^b In vehicle and test compound groups, the treatments that the
Measurements: Body weight, serum calcium levels and plasma calcitonin levels.
Data Evaluations: The difference in serum calcium and plasma calcitonin between a treatment group and the vehicle group was determined using a one-way analysis of variance with Dunnett's test, or other multiple comparison methods. Compounds were designated active if .rho.<0.05 vs. vehicle value.

[4] = system: promoter region of the human calcitonin gene (luciferase reporter, C1-3 cells); test: Calcitonin/Luciferase Reporter Gene Expression Assay; conditions: Homo sapiens, C13, 12 h, read-out: TAR (transcription activation ratio)
Protocol: as §1, §2, §3, §4

Row | Secretion Ratio [1] | TAR (transcription activation ratio) [2] | Compound | % Inhibition of PDE IV (normalized to rolipram) (PDE-IV) [%] | fold induction at 30 µM [1] | % Decrease Serum Calcium [3] [%] | % Increase Plasma Calcitonin [3] [%] | fold induction at 30 µM [4]
1 | 3.23 | 2.14 | 4,6-Dibutyl-1-(3,5-dimethyl-isoxazole-4-sulfonyl)-1,4-dihydro-pyrazolo[4,3- d]pyrimidine-5,7-dione [Example 8] | 26 |  |  |  | 
2 | 2.90 | 1.43 | 4,6-Dibutyl-1-ethanesulfonyl-1,4-dihydro-pyrazolo[4,3-d]pyrimidine-5,7-dion [Example 10] | 45 |  |  |  | 
3 |  |  | CCCCn1c(=O)c2nn(S(=O)(=O)c3ccc4ccccc4c3)cc2n(CCCC)c1=O [Example 4, 4,6-Dibutyl-2-(2-naphthalenesulfonyl)-2,4-dihydro-pyrazolo[4,3-d]pyrimidine-5,7-dione] | 33 | 4.91 | 5 | 8 | 1.75
4 |  |  | CCCCn1c(=O)c2nn(S(=O)(=O)c3ccc(C(C)(C)C)cc3)cc2n(CCCC)c1=O [Example 5, 4,6-Dibutyl-2-(4-tert-butyl-benzenesulfonyl)-2,4-dihydro-pyrazolo[4,3-d]pyrimidine-5,7-dione] | 63 | 4.5 | 1 | 101 | 2.27
5 |  |  | CCCCn1c(=O)c2nn(S(=O)(=O)c3cc(Cl)c(Cl)s3)cc2n(CCCC)c1=O [Example 6, 4,6-Dibutyl-2-(4,5-dichloro-thiophene-2-sulfonyl)-2,4-dihydro-pyrazolo[4,3-d]pyrimidine-5,7-dione] | 100 | 3.4 | 0 | 12 | 1.69
6 |  |  | CCCCn1c(=O)c2cn(S(=O)(=O)c3c(C)nn(C)c3Cl)nc2n(CCCC)c1=O [Example 7] |  | 2.92 | 4 | 80 | 2.13
